Test results published in the supplement of paper PMC11061612.

Key:
[1] = system: A253 (Head and Neck Carcinoma); experiment: Bliss excess, mean over the matrix (fraction); higher = more synergy
Outline: (§1)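 After 24 hours at 37°C and 5% CO2 in 1536-well plates, cells in DMEM/F12 or RPMI plus 10% FBS received two-drug dose matrices for 72 hours. Viability came from CellTiter-Glo 2.0 luminescence and was scaled as inhibition, anchored at 0 by vehicle wells and at 1 by blank wells. Combination Emax is taken as the second-highest inhibition in the matrix, and Bliss excess as the observed combination effect less EA + EB − EA·EB, with EA and EB the single-agent effects.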

COLO-792 (Melanoma) = experiment: as above
Outline: as §1

[2] = system: GA-10 (Burkitt's Lymphoma); experiment: as above
Outline: as §1

[3] = system: HCC1395 (Breast Carcinoma); experiment: as above
Outline: as §1

HCC70 (Breast Carcinoma) = experiment: as above
Outline: as §1

[4] = system: HT55 (Colorectal Carcinoma); experiment: as above
Outline: as §1

[5] = system: NCI-H1703 (Squamous Cell Lung Carcinoma); experiment: as above
Outline: as §1

[6] = system: NCI-H441 (Lung Adenocarcinoma); experiment: as above
Outline: as §1

[7] = system: NCI-H716 (Colorectal Carcinoma); experiment: as above
Outline: as §1

[8] = system: TE-10 (Esophageal Squamous Cell Carcinoma); experiment: as above
Outline: as §1

[9] = system: UACC-812 (Breast Carcinoma); experiment: as above
Outline: as §1

[10] = system: TE-10 (Esophageal Squamous Cell Carcinoma); experiment: combination Emax (second highest fraction inhibited in the dose matrix, 72 h); higher = more inhibition; extreme values may be limits of the assay
Outline: as §1
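Wherever Bliss excess, mean over the matrix is given: after 72 h of two-drug dosing.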

Compound | Bliss excess [1] | Bliss excess (COLO-792 (Melanoma)) | Bliss excess [2] | Bliss excess [3] | Bliss excess (HCC70 (Breast Carcinoma)) | Bliss excess [4] | Bliss excess [5] | Bliss excess [6] | Bliss excess [7] | Bliss excess [8] | Bliss excess [9] | combination Emax [10]
Cc1c2c(nn1C)CSCc1cc(n(C)n1)CSc1cc(c3ccccc3c1)OCCCc1c(C(=O)O)n(C)c3c-2c(Cl)ccc13 [AZD5991] + CC1(C)CCC(CN2CCN(c3ccc(C(=O)NS(=O)(=O)c4ccc(NCC5CCOCC5)c([N+](=O)[O-])c4)c(Oc4cnc5[nH]ccc5c4)c3)CC2)=C(c2ccc(Cl)cc2)C1 [Venetoclax] (first compound max 1 µM, 7x7, partner max 1 µM) | 0.0088 | 0.0312 | -0.0658 | -0.019 | 0.0042 | -0.0244 | 0.0049 | -0.0189 | -0.0436 | 0.0262 | 0.0196 | 0.886
CC1(C)CCC(CN2CCN(c3ccc(C(=O)NS(=O)(=O)c4ccc(NCC5CCOCC5)c([N+](=O)[O-])c4)c(Oc4cnc5[nH]ccc5c4)c3)CC2)=C(c2ccc(Cl)cc2)C1 [Venetoclax] + Cn1cnc2c(F)c(Nc3ccc(Br)cc3Cl)c(C(=O)NOCCO)cc21 [Selumetinib] (first compound max 1 µM, 7x7, partner max 3 µM) | -0.028 | 0.0083 | -0.0622 | -0.0171 | 0.0707 | -0.0356 | 0.0061 | -0.043 | -0.0814 | -0.0404 | -0.0297 | 0.415
CC1(C)CCC(CN2CCN(c3ccc(C(=O)NS(=O)(=O)c4ccc(NCC5CCOCC5)c([N+](=O)[O-])c4)c(Oc4cnc5[nH]ccc5c4)c3)CC2)=C(c2ccc(Cl)cc2)C1 [Venetoclax] + CN(C)CCCOc1ccc(-c2ccc3ncc4c(c3c2)n(C2CCOCC2)c(=O)n4C)cn1 [AZD0156] (first compound max 1 µM, 7x7, partner max 1 µM) | 0.0119 | 0.0153 | -0.0585 | -0.0304 | -0.0057 | -0.0443 | 0.013 | -0.0733 | -0.0272 | 0.0071 | -0.016 | 0.674
COc1cccc2c1C(=O)c1c(O)c3c(c(O)c1C2=O)C[C@@](O)(C(=O)CO)C[C@@H]3O[C@H]1C[C@H](N)[C@H](O)[C@H](C)O1 [Doxorubicin] + Cc1cc2ncnn2cc1Nc1ncc2c(n1)n(C1CCOCC1)c(=O)n2C [AZD7648] (first compound max 1 µM, 7x7, partner max 10 µM) | 0.108 | -0.0081 | 0.0964 | -0.0234 | 0.0344 | 0.0622 | 0.0451 | 0.0125 | 0.0113 | 0.0583 | -0.023 | 0.746
Cc1c2c(nn1C)CSCc1cc(n(C)n1)CSc1cc(c3ccccc3c1)OCCCc1c(C(=O)O)n(C)c3c-2c(Cl)ccc13 [AZD5991] + Cn1cnc2c(F)c(Nc3ccc(Br)cc3Cl)c(C(=O)NOCCO)cc21 [Selumetinib] (first compound max 1 µM, 7x7, partner max 3 µM) | 0.0716 | 0.0234 | 0.0086 | 0.0152 | 0.099 | 0.043 | -0.0087 | -0.0311 | 0.0278 | 0.0198 | 0.0137 | 0.899
CN(C)CCCOc1ccc(-c2ccc3ncc4c(c3c2)n(C2CCOCC2)c(=O)n4C)cn1 [AZD0156] + C=CCn1c(=O)c2cnc(Nc3ccc(N4CCN(C)CC4)cc3)nc2n1-c1cccc(C(C)(C)O)n1 [AZD1775] (first compound max 1 µM, partner max 1 µM) | -0.0389 | -0.017 | 0.026 | -0.0648 | -0.0682 | -0.0671 | -0.051 | -0.0963 | 0.022 | -0.033 | -0.0561 | 0.808
CN(C)CCCOc1ccc(-c2ccc3ncc4c(c3c2)n(C2CCOCC2)c(=O)n4C)cn1 [AZD0156] + CCN(CCO)CCCOc1ccc2c(Nc3cc(CC(=O)Nc4cccc(F)c4)[nH]n3)ncnc2c1 [AZD2811] (first compound max 1 µM, 7x7, partner max 1 µM) | -0.0119 | 0.0167 | 0.0158 | -0.0936 | -0.0184 | 0.0091 | 0.0059 | -0.0776 | -0.0063 | 0.0126 | -0.0171 | 0.332
C=CCn1c(=O)c2cnc(Nc3ccc(N4CCN(C)CC4)cc3)nc2n1-c1cccc(C(C)(C)O)n1 [AZD1775] + O=C(c1cc(Cc2n[nH]c(=O)c3ccccc23)ccc1F)N1CCN(C(=O)C2CC2)CC1 [Olaparib] (first compound max 1 µM, partner max 10 µM) | 0.0364 | -0.0241 | -0.0462 | -0.0557 | -0.0479 | 0.0391 | -0.0267 | -0.0662 | -0.0695 | -0.0196 | -0.023 | 0.858
C=CCn1c(=O)c2cnc(Nc3ccc(N4CCN(C)CC4)cc3)nc2n1-c1cccc(C(C)(C)O)n1 [AZD1775] + C[C@@H]1COCCN1C2=NC(=NC(=C2)C3(CC3)[S@](=N)(=O)C)C4=C5C=CNC5=NC=C4 [AZD6738] (first compound max 1 µM, partner max 10 µM) | 0.0764 | 0.0941 | 0.0096 | 0.0091 | -0.0312 | 0.0434 | 0.0263 | -0.0834 | -0.0004 | -0.0029 | 0.0176 | 0.901
CCN(CCO)CCCOc1ccc2c(Nc3cc(CC(=O)Nc4cccc(F)c4)[nH]n3)ncnc2c1 [AZD2811] + C[C@@H]1COCCN1C2=NC(=NC(=C2)C3(CC3)[S@](=N)(=O)C)C4=C5C=CNC5=NC=C4 [AZD6738] (first compound max 1 µM, 7x7, partner max 10 µM) | -0.0471 | 0.0336 | -0.057 | -0.0579 | -0.131 | -0.0227 | -0.0148 | -0.0324 | -0.0765 | -0.0869 | -0.0303 | 0.794
COc1cccc(OCCCN)c1-c1cc(Nc2cnc(C#N)cn2)n[nH]1 [Prexasertib] + CN(C)CCCOc1ccc(-c2ccc3ncc4c(c3c2)n(C2CCOCC2)c(=O)n4C)cn1 [AZD0156] (first compound max 1 µM, 7x7, partner max 1 µM) | -0.0379 | -0.0447 | 0.0213 | -0.046 | -0.0319 | 0.0444 | -0.0295 | -0.0994 | 0.025 | -0.0174 | -0.0324 | 0.938
CC1(C)CCC(CN2CCN(c3ccc(C(=O)NS(=O)(=O)c4ccc(NCC5CCOCC5)c([N+](=O)[O-])c4)c(Oc4cnc5[nH]ccc5c4)c3)CC2)=C(c2ccc(Cl)cc2)C1 [Venetoclax] + COc1cc(Nc2ncc3c(n2)-c2ccc(Cl)cc2C(c2c(F)cccc2OC)=NC3)ccc1C(=O)O [Alisertib] (first compound max 1 µM, 7x7, partner max 10 µM) | 0.0091 | 0.0487 | 0.0181 | -0.0147 | 0.0437 | 0.0009 | 0.0636 | -0.0511 | -0.0203 | -0.0401 | -0.0157 | 0.639
COc1cccc(OCCCN)c1-c1cc(Nc2cnc(C#N)cn2)n[nH]1 [Prexasertib] + C=CCn1c(=O)c2cnc(Nc3ccc(N4CCN(C)CC4)cc3)nc2n1-c1cccc(C(C)(C)O)n1 [AZD1775] (first compound max 1 µM, partner max 1 µM) | 0.0877 | 0.0236 | 0.0653 | 0.0111 | 0.0723 | 0.0259 | 0.066 | -0.0383 | 0.0167 | 0.0262 | 0.0705 | 0.976
COc1cccc(OCCCN)c1-c1cc(Nc2cnc(C#N)cn2)n[nH]1 [Prexasertib] + CCc1c2c(nc3ccc(O)cc13)-c1cc3c(c(=O)n1C2)COC(=O)[C@]3(O)CC [SN-38] (first compound max 1 µM, 7x7, partner max 0.3 µM) | 0.0296 | 0.087 | 0.0088 | -0.0466 | -0.0259 | 0.0552 | -0.0374 | -0.0772 | 0.0825 | -0.0428 | -0.0633 | 0.939
CCN(CCO)CCCOc1ccc2c(Nc3cc(CC(=O)Nc4cccc(F)c4)[nH]n3)ncnc2c1 [AZD2811] + C=CCn1c(=O)c2cnc(Nc3ccc(N4CCN(C)CC4)cc3)nc2n1-c1cccc(C(C)(C)O)n1 [AZD1775] (first compound max 1 µM, partner max 1 µM) | 0.0566 | 0.043 | 0.0303 | -0.0904 | -0.0112 | 0.0302 | -0.0453 | -0.0518 | 0.0847 | 0.0176 | -0.0352 | 0.737
CC1(C)CCC(CN2CCN(c3ccc(C(=O)NS(=O)(=O)c4ccc(NCC5CCOCC5)c([N+](=O)[O-])c4)c(Oc4cnc5[nH]ccc5c4)c3)CC2)=C(c2ccc(Cl)cc2)C1 [Venetoclax] + C[C@@H](Nc1cc(F)cc(F)c1)c1cc(C(=O)N(C)C)cc2c(=O)cc(N3CCOCC3)oc12 [AZD8186] (first compound max 1 µM, 7x7, partner max 3 µM) | -0.0364 | 0.0036 | -0.0088 | 0.0107 | 0.0376 | -0.0193 | 0.0037 | -0.0304 | -0.047 | -0.0428 | -0.0319 | 0.373
